{"source": "ChEMBL document CHEMBL3817804", "about": "(Medchemcomm, 2016)", "key": {"[1]": {"target": "T1, Solute carrier family 15 member 1 (Oryctolagus cuniculus, UniProt P36836)", "T1 sequence (P36836 whole entry)": "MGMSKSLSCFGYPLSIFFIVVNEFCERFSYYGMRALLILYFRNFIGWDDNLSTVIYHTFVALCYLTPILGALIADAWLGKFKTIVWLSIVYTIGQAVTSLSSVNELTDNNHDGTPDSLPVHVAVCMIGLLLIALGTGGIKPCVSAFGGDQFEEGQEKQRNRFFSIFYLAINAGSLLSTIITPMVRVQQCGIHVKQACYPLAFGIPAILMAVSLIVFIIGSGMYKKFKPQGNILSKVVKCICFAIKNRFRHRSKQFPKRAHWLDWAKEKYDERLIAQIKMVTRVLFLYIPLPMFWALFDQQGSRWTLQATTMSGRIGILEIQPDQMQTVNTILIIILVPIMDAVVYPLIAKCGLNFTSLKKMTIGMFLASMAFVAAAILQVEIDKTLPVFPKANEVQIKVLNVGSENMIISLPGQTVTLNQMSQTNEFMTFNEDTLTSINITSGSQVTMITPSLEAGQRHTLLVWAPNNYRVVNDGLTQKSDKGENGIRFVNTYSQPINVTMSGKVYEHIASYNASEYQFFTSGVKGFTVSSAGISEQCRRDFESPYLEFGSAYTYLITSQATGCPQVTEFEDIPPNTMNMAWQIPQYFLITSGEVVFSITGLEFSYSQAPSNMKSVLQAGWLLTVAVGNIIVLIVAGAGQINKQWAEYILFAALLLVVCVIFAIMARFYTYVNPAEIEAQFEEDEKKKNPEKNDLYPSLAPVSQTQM", "test": "Inhibition of [3H]-D-Phe-L-Gln uptake at rabbit PepT1 expressed in Xenopus laevis oocytes at pH 5.5 measured after 1 hr by scintillation counting method", "assay_type": "cell-based"}, "[2]": {"target": "T1, Solute carrier family 15 member 1", "test": "Substrate activity at rabbit PepT1 expressed in Xenopus laevis oocytes assessed as drug transportation across membrane under holding potential at -30 mV at 2 mM by two electrode voltage-clamp method", "assay_type": "ADME, cell-based", "conditions": "2000 µM"}}, "data": [{"smiles": "C/C=C/C[C@H](C)[C@@H](OC(=O)CNC(=O)C[C@@H](NC(=S)[C@H](C)N)C(=O)O)[C@@H]1C(=O)N[C@@H](CC)C(=O)N(C)CC(=O)N(C)[C@H](CC(C)C)C(=O)N[C@H](C(C)C)C(=O)N(C)[C@H](CC(C)C)C(=O)N[C@H](C)C(=O)N[C@H](C)C(=O)N(C)[C@H](CC(C)C)C(=O)N(C)[C@H](CC(C)C)C(=O)N(C)[C@H](C(C)C)C(=O)N1C", "values": [{"measurement": "Ki", "setting": "[1]", "value": 1110, "unit": "µM"}, {"measurement": "Activity", "setting": "[2]", "value": 322, "unit": "nA"}]}]}
